The values that follow come from ChEMBL document CHEMBL3400065, “N10,N11-di-alkylamine indolo[3,2-b]quinolines as hemozoin inhibitors: design, synthesis and antiplasmodial activity” (Bioorg Med Chem, 2015).

Data set [1] relates to Plasmodium falciparum. The data set can be described thus: Antimalarial activity against ring stage Plasmodium falciparum W2 infected with human red blood cells incubated for 48 hrs by flow cytometry. Particulars: W2, 48 h. Type of data set: functional, organism-based.
In data set [2] the test system is Plasmodium falciparum. The data set is described as follows: Antimalarial activity against ring stage Plasmodium falciparum 3D7 infected with human red blood cells incubated for 48 hrs by SYBR Green method. The format is functional, organism-based. The settings on record: 3D7, 48 h.
Data set [3] can be described thus: Inhibition of beta-hematin formation after 5 to 6 hrs by pyridine-ferrichrome detergent-mediated assay. Type of data set: physicochemical.
Data set [4] deals with Plasmodium falciparum. The data set is described as follows: Antimalarial activity against ring stage Plasmodium falciparum Dd2 infected with human red blood cells incubated for 48 hrs by SYBR Green method. The settings on record: Dd2, 48 h. Type of data set: functional.
Data set [5] in a line: Cytotoxicity against human HepG2A16 cells by MTT assay. Type of data set: cell-based.
Data set [6] can be described thus: n-octanol-phosphate buffer partition coefficient, log D in CH3CN-MeOH-phosphate buffer at pH 5.2 by HPLC-UV analysis. The format is physicochemical.
Data set [7] can be described thus: Selectivity index, ratio of IC50 for human HepG2A16 cells to IC50 for ring stage Plasmodium falciparum W2. Type of data set: toxicity. Particulars: read-out: Ratio IC50.
Data set [8] is described as follows: n-octanol-phosphate buffer partition coefficient, log D in CH3CN-MeOH-phosphate buffer at pH 7.4 by HPLC-UV analysis. Type of data set: physicochemical.
Data set [9] concerns Plasmodium falciparum. The data set can be described thus: Resistance index, ratio of IC50 for ring stage Plasmodium falciparum W2 to IC50 for ring stage Plasmodium falciparum 3D7. The format is functional.
Data set [10] deals with Plasmodium falciparum. The data set can be described thus: Resistance index, ratio of IC50 for ring stage Plasmodium falciparum Dd2 to IC50 for ring stage Plasmodium falciparum 3D7. The format is functional.
Data set [11] has as its system Plasmodium falciparum. The data set is described as follows: Ratio of chloroquine IC50 to compound IC50 for ring stage Plasmodium falciparum W2 infected with human red blood cells incubated for 48 hrs by flow cytometry. Type of data set: functional.

Regarding `Clc1ccc2c(NCCN3CCCC3)c3c(nc2c1)c1cc(Cl)ccc1n3CCN1CCCC1`, the IC50 with Plasmodium falciparum [1] was found to be 124 nM; in the data set with Plasmodium falciparum [2] it was 375 nM; in data set [3], 23400 nM; in the data set on Plasmodium falciparum [4], 452 nM; in data set [5], 8700 nM. Moreover, the figures for the logD in data set [6] and in data set [8] were 1.05 and 3, respectively. In [7], the selectivity ratio came to 70.

In the case of `CCN(CC)CCNc1c2ccc(Cl)cc2nc2c3ccccc3n(CCN3CCCC3)c12`, the IC50 in the data set with Plasmodium falciparum [1] came out at 158 nM; with Plasmodium falciparum [2] it was 656 nM; in data set [3] it was 98200 nM; in the data set with Plasmodium falciparum [4], 724 nM; in data set [5] it was 6400 nM. For the same compound, the logD in data set [6] is 0.05; in [8], 3.2. In data set [7], the selectivity ratio was determined as 40.

`CCN(CC)CCOc1cc(Cl)cc2nc3c4cc(Cl)ccc4n(CCN(CC)CC)c3cc12` came in with an IC50 in data set [5] of 5300 nM. Moreover, the “Ratio IC50” value with Plasmodium falciparum [9] and in the data set on Plasmodium falciparum [10] was 0.3 in each case. Besides, the selectivity ratio in [7] worked out at 212.

`CCN(CC)CCCC(C)Nc1c2ccc(Cl)cc2nc2c3cc(Cl)ccc3n(CCN3CCCC3)c12` (centres undefined): the IC50 in the data set with Plasmodium falciparum [1] turned out to be 126 nM; in the data set with Plasmodium falciparum [2] it was 456 nM; in data set [3], 10800 nM; in the data set on Plasmodium falciparum [4], 706 nM; in data set [5], 6500 nM. Moreover, in data set [6], the logD is 0.26. Also, in data set [7], the selectivity ratio is 52.

With `Clc1ccc2c(NCCCN3CCCCC3)c3c(nc2c1)c1ccccc1n3CCN1CCCC1`, the IC50 in the data set on Plasmodium falciparum [1] was determined as 117 nM; in the data set with Plasmodium falciparum [2] it was 535 nM; in [3], 42900 nM; in the data set on Plasmodium falciparum [4] it was 658 nM; in data set [5] it was 4300 nM. The logD was -0.01 in data set [6] and 2.8 in data set [8]. In addition, the selectivity ratio in data set [7] is 37.

In the case of `CCN(CC)CCCC(C)Nc1c2ccc(Cl)cc2nc2c3ccccc3n(CCN3CCCC3)c12` (centres undefined), the IC50 in the data set with Plasmodium falciparum [1] stood at 20 nM; with Plasmodium falciparum [2], 245 nM; in data set [3], 7900 nM; in the data set with Plasmodium falciparum [4] it was 314 nM; in [5], 2500 nM. Further, the logD was determined as 0.1 in data set [6] and 0.6 in [8]. Moreover, in the data set on Plasmodium falciparum [11], the “Ratio IC50” value is listed as 10. Moreover, in data set [7], the selectivity ratio was 125.

In data set [3], `CCN(CC)CCCC(C)Nc1ccnc2cc(Cl)ccc12` (centres undefined) [CHLOROQUINE] had an IC50 of 28200 nM.

As for `CCN(CC)CCCNc1c2ccc(Cl)cc2nc2c3cc(Cl)ccc3n(CCN3CCOCC3)c12`, the IC50 is 95 nM in the data set with Plasmodium falciparum [1]; 199 nM with Plasmodium falciparum [2]; 21100 nM in [3]; 311 nM with Plasmodium falciparum [4]; 4700 nM in data set [5]. The logD in data set [6] is 1.5. Moreover, in data set [7], the selectivity ratio came to 49.

With `CCN(CC)CCCNc1c2ccc(Cl)cc2nc2c3cc(Cl)ccc3n(CCN3CCCC3)c12`, the IC50 in the data set on Plasmodium falciparum [1] turned out to be 77 nM; with Plasmodium falciparum [2], 392 nM; in [3], 20400 nM; in the data set with Plasmodium falciparum [4] it was 481 nM; in data set [5] it was 6000 nM. Further, the logD in data set [6] was 0.54; in [8], 3.23. Besides, the selectivity ratio in data set [7] was 78.

In the case of `Clc1ccc2c(NCCCN3CCOCC3)c3c(nc2c1)c1cc(Cl)ccc1n3CCN1CCCC1`, the IC50 in the data set with Plasmodium falciparum [1] came out at 292 nM; with Plasmodium falciparum [2], 407 nM; in [3], 17400 nM; in the data set with Plasmodium falciparum [4] it was 572 nM; in [5] it was 11900 nM. In addition, the logD in data set [6] stood at 1.5. Moreover, the selectivity ratio in data set [7] was determined as 41.

As to `CCN(CC)CCNc1c2ccc(Cl)cc2nc2c3cc(Cl)ccc3n(CCN3CCOCC3)c12`, the IC50 in the data set with Plasmodium falciparum [1] came out at 165 nM; in the data set with Plasmodium falciparum [2], 513 nM; in [3], 14300 nM; in the data set on Plasmodium falciparum [4], 683 nM; in data set [5] it was 16600 nM. Moreover, in data set [6], the pH-dependent lipophilicity (logD) was found to be 1.79. The selectivity ratio in data set [7] was found to be 103.

For `CCN(CC)CCCNc1c2ccc(Cl)cc2nc2c3ccccc3n(CCN3CCCC3)c12`, the IC50 worked out at 87 nM with Plasmodium falciparum [1]; 480 nM in the data set with Plasmodium falciparum [2]; 21900 nM in [3]; 455 nM in the data set with Plasmodium falciparum [4]; 4500 nM in [5]. In addition, the logD in [6] was -0.03; in [8] it was 1.48. The selectivity ratio in data set [7] is 52.

`Clc1ccc2c(NCCN3CCCC3)c3c(nc2c1)c1ccccc1n3CCN1CCCC1`: the IC50 in the data set with Plasmodium falciparum [1] was found to be 99 nM; in the data set with Plasmodium falciparum [2], 468 nM; in data set [3], 79000 nM; in the data set on Plasmodium falciparum [4] it was 631 nM; in data set [5], 4600 nM. Moreover, the results for the logD in data set [6] and in data set [8] were 0.34 and 2.7, respectively. Besides, in data set [7], the selectivity ratio was found to be 46.

Consider `Clc1ccc2c(NCCCN3CCOCC3)c3c(nc2c1)c1ccccc1n3CCN1CCCC1`, for which the IC50 worked out at 90 nM in the data set with Plasmodium falciparum [1]; 469 nM with Plasmodium falciparum [2]; 32900 nM in data set [3]; 678 nM in the data set with Plasmodium falciparum [4]; 8600 nM in [5]. The compound also displayed a logD in data set [6] of 0.69. The selectivity ratio in data set [7] was found to be 96.

For the compound `CCN(CC)CCCNc1c2ccc(Cl)cc2nc2c3ccccc3n(CCN3CCOCC3)c12`, the IC50 stood at 113 nM in the data set on Plasmodium falciparum [1]; 320 nM in the data set on Plasmodium falciparum [2]; 26900 nM in data set [3]; 453 nM in the data set on Plasmodium falciparum [4]; 4600 nM in data set [5]. The logD in data set [6] worked out at 0.72. Also, in data set [7], the selectivity ratio came to 41.

With `Clc1ccc2c(NCCCN3CCCCC3)c3c(nc2c1)c1cc(Cl)ccc1n3CCN1CCCC1`, the IC50 in the data set on Plasmodium falciparum [1] was determined as 97 nM; in the data set with Plasmodium falciparum [2] it was 660 nM; in [3], 13500 nM; with Plasmodium falciparum [4] it was 638 nM; in [5] it was 5700 nM. The logD stood at 0.78 in data set [6] and 3.1 in data set [8]. The selectivity ratio in data set [7] worked out at 59.

With `CCN(CC)CCNc1c2ccc(Cl)cc2nc2c3cc(Cl)ccc3n(CCN3CCCC3)c12`, the IC50 in the data set with Plasmodium falciparum [1] was determined as 73 nM; with Plasmodium falciparum [2], 245 nM; in data set [3], 24800 nM; in the data set on Plasmodium falciparum [4] it was 215 nM; in data set [5], 7500 nM. This compound also gave a logD in data set [6] of 1. Moreover, in data set [7], the selectivity ratio was 103.
